In ChEMBL document CHEMBL1201862, “PubChem BioAssay data set” (2004):
Calls of active or inactive are those of the source.

Columns and labels:
[1] = target: T1, Endoribonuclease toxin MazF (Escherichia coli K-12, UniProt P0AE70); assay: activation of MazEF endoribonuclease cleavage – biochemical, fluorescence, single-stranded RNA substrate, uHTS hits, dose response (AID 588481); assay type: functional
T1 sequence (P0AE70 whole entry): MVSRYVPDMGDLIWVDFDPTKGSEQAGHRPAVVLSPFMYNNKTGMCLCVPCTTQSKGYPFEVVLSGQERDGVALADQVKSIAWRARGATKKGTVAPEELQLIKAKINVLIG

[2] = target: T1, Endoribonuclease toxin MazF; assay: substrate-only fluorescence increase artefacts – biochemical, single-stranded RNase substrate, counter-screen for MazEF activator project, dose response (AID 588502); assay type: functional
Prothrombin = Prothrombin (Bos taurus, UniProt P00735); assay: thrombin protease inhibitors – biochemical, fluorescence polarization, uHTS hits, dose response (AID 602369); assay type: functional
[3] = target: 72 kDa type IV collagenase (Homo sapiens, UniProt P08253); assay: Dose Response validation of uHTS RPN11 inhibitor hits using a MMP-2 Fluorescence assay.; assay type: functional
[4] = target: Peroxisome proliferator-activated receptor gamma/Nuclear receptor corepressor 2 (Homo sapiens, UniProt P37231+Q9Y618); assay: Counterscreen for NR2E3 inverse agonists: TR-FRET-based biochemical high throughput dose response assay to identify inverse agonists of the interaction between peroxisome proliferator-activated receptor gamma (PPARg) and nuclear receptor co-repressor 2 (NCOR2).; assay type: functional
[5] = target: Photoreceptor-specific nuclear receptor (Homo sapiens, UniProt Q9Y5X4); assay: ligands suppressing NR2E3 nuclear receptor activity – biochemical, TR-FRET, dose response (AID 463256); assay type: functional
[6] = target: 26S proteasome non-ATPase regulatory subunit 14 (Homo sapiens, UniProt O00487); assay: inhibition of proteasome subunit RPN11 – biochemical, fluorescence polarization, uHTS hits, confirmation (AID 602368); assay type: functional
[7] = target: T2, Corticotropin-releasing factor receptor 2/Corticotropin-releasing factor-binding protein (Homo sapiens, UniProt P24387+Q13324); assay: activators of CRF receptor 2 with binding protein – uHTS hits, confirmation (AID 602473); assay type: functional; settings: read-out: EC50_Mean
T2 sequence (Q13324 whole entry): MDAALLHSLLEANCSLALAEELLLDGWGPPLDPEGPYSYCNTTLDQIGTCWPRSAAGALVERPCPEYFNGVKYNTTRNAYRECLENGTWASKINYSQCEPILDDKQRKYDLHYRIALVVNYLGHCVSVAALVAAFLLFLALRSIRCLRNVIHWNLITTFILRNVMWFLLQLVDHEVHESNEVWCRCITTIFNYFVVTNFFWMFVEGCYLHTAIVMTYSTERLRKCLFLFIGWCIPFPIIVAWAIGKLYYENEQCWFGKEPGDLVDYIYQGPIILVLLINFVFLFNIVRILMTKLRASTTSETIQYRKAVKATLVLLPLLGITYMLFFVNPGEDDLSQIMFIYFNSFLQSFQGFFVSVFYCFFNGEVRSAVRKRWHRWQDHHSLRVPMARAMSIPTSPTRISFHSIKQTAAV
T2 sequence (P24387 whole entry): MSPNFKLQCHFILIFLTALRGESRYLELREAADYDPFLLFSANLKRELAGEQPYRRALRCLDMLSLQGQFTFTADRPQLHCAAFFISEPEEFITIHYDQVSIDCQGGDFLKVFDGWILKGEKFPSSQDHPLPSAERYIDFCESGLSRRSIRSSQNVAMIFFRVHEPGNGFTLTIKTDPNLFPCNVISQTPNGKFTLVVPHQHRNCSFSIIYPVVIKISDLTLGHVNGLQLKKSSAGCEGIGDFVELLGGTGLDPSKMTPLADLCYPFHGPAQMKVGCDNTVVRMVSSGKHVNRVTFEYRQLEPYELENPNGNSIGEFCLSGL

Galanin receptor type 3 = target: T3, Galanin receptor type 3 (Homo sapiens, UniProt O60755); assay: Fluorescence-based cell-based primary high throughput dose response assay to identify antagonists of the Galanin Receptor 3 (GalR3).; assay type: functional
T3 sequence (O60755 whole entry): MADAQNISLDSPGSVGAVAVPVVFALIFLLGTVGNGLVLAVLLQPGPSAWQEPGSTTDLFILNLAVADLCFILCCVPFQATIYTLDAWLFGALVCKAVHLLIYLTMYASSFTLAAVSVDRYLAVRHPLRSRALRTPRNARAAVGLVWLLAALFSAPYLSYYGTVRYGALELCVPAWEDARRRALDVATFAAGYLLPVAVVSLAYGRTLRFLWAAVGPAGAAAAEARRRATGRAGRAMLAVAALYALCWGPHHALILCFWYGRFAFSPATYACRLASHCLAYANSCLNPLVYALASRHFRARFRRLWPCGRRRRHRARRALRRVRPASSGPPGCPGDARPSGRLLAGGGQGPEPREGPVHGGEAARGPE

cells = assay type: functional, cell-based; settings: HEK-CNG

Chain of 72 kDa type IV collagenase (P08253 whole entry): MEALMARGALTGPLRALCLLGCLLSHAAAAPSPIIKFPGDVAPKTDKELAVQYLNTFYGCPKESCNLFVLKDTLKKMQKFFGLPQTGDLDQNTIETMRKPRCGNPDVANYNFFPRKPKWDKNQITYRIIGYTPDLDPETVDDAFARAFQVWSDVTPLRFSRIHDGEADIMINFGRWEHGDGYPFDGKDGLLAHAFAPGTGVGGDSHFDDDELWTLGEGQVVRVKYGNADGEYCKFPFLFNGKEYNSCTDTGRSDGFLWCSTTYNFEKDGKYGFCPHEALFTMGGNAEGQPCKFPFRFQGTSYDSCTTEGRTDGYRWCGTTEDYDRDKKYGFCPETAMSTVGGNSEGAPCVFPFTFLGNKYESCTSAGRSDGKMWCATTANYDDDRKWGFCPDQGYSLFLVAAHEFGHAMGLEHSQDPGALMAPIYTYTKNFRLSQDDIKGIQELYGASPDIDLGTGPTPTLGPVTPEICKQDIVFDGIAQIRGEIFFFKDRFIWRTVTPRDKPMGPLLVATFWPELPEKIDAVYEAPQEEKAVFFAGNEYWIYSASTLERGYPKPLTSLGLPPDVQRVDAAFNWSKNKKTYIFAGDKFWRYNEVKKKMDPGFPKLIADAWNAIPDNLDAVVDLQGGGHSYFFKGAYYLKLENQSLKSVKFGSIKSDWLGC
Chain of 26S proteasome non-ATPase regulatory subunit 14 (O00487 whole entry): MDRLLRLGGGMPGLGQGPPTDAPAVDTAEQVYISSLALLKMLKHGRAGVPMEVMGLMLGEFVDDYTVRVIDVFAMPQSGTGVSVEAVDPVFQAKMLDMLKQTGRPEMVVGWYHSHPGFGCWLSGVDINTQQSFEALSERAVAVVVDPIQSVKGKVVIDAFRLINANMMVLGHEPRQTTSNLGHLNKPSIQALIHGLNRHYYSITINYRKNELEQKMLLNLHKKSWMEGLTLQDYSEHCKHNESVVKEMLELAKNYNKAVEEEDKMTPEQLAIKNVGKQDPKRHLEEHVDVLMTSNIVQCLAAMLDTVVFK
Chain of Peroxisome proliferator-activated receptor gamma/Nuclear receptor corepressor 2 (P37231 whole entry): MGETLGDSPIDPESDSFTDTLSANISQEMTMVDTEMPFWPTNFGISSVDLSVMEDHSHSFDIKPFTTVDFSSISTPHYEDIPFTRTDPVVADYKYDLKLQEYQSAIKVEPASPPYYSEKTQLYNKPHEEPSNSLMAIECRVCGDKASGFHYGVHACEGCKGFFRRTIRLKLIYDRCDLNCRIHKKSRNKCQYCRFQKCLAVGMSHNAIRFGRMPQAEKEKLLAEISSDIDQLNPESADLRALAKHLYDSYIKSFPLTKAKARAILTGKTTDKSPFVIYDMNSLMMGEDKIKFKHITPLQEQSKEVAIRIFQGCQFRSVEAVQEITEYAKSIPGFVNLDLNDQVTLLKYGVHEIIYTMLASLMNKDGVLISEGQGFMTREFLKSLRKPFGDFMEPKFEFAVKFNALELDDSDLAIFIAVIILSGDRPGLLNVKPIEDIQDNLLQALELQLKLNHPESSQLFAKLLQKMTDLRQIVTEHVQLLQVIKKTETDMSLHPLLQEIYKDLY
Chain of Peroxisome proliferator-activated receptor gamma/Nuclear receptor corepressor 2 (Q9Y618 whole entry): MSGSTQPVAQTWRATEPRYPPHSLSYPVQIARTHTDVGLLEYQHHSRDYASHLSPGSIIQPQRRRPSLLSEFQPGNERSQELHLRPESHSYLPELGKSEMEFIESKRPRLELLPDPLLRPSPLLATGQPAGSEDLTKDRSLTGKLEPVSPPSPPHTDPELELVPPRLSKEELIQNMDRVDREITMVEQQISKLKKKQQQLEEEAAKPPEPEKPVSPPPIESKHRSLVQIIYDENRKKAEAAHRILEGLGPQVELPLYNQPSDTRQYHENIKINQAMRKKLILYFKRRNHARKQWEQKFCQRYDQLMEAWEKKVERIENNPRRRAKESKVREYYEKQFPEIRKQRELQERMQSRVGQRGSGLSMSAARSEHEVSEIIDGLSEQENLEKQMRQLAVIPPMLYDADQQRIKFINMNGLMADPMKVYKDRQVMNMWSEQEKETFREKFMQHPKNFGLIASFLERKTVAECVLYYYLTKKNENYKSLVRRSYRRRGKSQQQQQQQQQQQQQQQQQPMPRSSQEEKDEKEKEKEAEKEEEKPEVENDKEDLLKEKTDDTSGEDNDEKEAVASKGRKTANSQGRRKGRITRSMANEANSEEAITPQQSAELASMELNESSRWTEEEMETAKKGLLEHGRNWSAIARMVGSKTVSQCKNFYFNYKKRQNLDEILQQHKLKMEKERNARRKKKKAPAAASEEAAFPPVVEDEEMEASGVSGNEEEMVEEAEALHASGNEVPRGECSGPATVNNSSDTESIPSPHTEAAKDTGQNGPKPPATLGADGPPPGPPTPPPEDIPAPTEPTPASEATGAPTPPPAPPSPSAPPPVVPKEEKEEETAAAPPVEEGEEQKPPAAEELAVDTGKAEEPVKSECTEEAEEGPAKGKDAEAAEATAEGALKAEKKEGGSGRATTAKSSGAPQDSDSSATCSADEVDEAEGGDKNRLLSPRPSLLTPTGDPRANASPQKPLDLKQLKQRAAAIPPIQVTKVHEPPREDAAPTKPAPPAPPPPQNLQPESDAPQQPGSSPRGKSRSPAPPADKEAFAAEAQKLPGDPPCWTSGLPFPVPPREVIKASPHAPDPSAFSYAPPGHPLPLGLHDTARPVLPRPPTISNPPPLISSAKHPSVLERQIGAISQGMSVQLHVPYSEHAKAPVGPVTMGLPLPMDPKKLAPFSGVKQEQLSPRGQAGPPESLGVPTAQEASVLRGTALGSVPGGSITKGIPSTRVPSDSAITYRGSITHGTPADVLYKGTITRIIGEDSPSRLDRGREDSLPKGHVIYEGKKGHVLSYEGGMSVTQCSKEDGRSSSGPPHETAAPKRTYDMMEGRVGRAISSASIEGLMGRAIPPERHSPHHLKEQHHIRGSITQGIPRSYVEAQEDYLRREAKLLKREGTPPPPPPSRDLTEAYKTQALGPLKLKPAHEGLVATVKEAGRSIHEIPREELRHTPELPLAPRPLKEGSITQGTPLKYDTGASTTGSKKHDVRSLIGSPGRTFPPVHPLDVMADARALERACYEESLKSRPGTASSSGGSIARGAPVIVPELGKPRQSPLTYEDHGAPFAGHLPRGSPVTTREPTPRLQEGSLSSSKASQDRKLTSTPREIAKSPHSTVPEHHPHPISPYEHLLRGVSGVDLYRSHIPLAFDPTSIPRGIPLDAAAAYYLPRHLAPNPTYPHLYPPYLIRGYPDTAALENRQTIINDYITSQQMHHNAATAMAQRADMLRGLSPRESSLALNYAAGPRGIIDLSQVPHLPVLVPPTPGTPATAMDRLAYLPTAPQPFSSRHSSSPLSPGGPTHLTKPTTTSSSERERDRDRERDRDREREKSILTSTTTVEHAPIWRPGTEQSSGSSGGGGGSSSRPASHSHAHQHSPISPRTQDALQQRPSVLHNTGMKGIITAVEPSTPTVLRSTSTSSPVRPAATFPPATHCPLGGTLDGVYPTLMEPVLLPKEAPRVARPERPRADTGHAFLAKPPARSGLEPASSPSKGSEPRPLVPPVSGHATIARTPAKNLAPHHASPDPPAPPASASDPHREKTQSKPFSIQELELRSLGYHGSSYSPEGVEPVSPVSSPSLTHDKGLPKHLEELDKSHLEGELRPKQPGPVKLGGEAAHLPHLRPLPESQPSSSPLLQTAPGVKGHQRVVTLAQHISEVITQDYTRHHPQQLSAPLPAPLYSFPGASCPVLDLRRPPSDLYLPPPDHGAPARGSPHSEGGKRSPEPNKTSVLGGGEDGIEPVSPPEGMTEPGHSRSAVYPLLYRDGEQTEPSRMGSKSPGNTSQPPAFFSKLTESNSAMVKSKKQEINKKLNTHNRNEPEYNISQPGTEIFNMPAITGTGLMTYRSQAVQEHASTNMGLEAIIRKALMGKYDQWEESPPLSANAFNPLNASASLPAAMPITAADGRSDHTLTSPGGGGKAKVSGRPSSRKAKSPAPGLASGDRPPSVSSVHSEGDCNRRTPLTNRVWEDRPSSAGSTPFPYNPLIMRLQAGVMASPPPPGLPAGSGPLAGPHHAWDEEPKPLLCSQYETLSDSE
Chain of Photoreceptor-specific nuclear receptor (Q9Y5X4 whole entry): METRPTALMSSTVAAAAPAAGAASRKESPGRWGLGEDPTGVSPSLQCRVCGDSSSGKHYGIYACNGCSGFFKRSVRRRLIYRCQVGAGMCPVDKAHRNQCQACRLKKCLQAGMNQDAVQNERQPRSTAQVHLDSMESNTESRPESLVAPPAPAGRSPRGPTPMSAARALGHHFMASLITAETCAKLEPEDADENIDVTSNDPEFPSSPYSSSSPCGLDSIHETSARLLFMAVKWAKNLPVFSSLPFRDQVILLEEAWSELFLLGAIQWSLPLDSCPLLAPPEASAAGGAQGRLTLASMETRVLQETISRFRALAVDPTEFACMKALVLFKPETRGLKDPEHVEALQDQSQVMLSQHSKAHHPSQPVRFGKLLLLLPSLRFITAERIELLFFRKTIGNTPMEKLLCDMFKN

Row | SMILES | EC50 [1] | EC50 [2] | IC50 (Prothrombin) | IC50 [3] | IC50 [6] | further results
1 | Nc1c(C(=O)Nc2ccccc2)sc2nc3c(c(-c4ccco4)c12)CCC3 | 11.3 µM (active) | > 99 µM (inactive) |  |  |  | 
2 | O=C(Nc1nc(-c2nc3ccccc3s2)cs1)c1ccco1 |  |  | 75.1 µM (active) | > 100 µM (inactive) | 10.1 µM (active) | IC50 [4]: 3.92 µM (active); IC50 [5]: 2.44 µM (active)
3 | O=C(CCN1C(=O)/C(=C\c2cccs2)SC1=S)Nc1ccccn1 |  |  | 15.1 µM (active) | > 100 µM (inactive) | 9.93 µM (active) | 
4 | Cn1c(=O)c2[nH]c(-c3ccccc3Cl)c(O)c2n(C)c1=O | 55.6 µM (inactive) | 16 µM (active) |  |  |  | EC50 [7]: > 53 µM (inactive)
5 | Cc1ccc2c(n1)sc1c(-c3ccccc3)c(C#N)c(N)nc12 | > 99 µM (inactive) | > 99 µM (inactive) |  |  |  | 
6 | O=C(C(=O)c1cc(Br)ccc1O)c1cc(Br)ccc1O |  |  |  |  |  | IC50 (Galanin receptor type 3): 1.1 µM (active); EC50 (cells): > 29.9 µM (inactive)
